In a melting point compilation (Tetko et al.; mined from patent text by program, amines drawn as free bases though some values may be those of a salt) one finds melting point data, which are given here for 66 compounds.

As to `O=C(NC1CCNCC1)N(CCCN1CCC(Cc2ccccc2)CC1)c1ccccc1`, the melting point (as a rule, the temperature, or range, at which the solid turns liquid) is 85 to 87 °C.
Consider `CN(C)C1(c2cccc(F)c2)CCC(c2[nH]c3ccccc3c2CCc2ccncc2)CC1` (stereo unspecified), for which the melting point was 301 to 314 °C.
Turning to `C=CCOc1ccc(OC2CCCCO2)c2c1NC(=O)CC2` (stereo unspecified), the melting point lay within 111 to 113 °C.
Compound `Cc1ccc(OCC(CO)NC(C)(C)C)c(-c2ccc(NN)nn2)c1` (stereo unspecified) gave a melting point of 172 to 178 °C.
In the case of `CC(N)=CC(=O)CS(=O)(=O)N(C)Cc1ccccc1`, the melting point is 115 to 118 °C.
Turning to `Cc1ccc(NC(=O)N=C2CCCN2C)cc1`, the melting point was 136 to 137 °C.
`C/C(Cl)=C\C(=O)Nc1ccc(C)cc1` displayed a melting point of 108 to 109 °C.
Compound `COc1ccc(F)cc1C(C)(C)CC(O)(C(=O)O)C(F)(F)F` (stereo unspecified) had a melting point of 102 to 104 °C.
The value for `Cc1ccc(C=NO)cc1Cl` was 66 to 68 °C; that for `CS(=O)(=O)c1ccc(C(CC2CCCC2)C(=O)Nc2ccccn2)cc1C(F)(F)F` (stereo unspecified) was 86 to 89 °C; that for `CNC(=O)Cc1cccc2c(C(C)C)nccc12` was 153 to 154 °C.
In turn, `O=c1[nH]c2cc(Br)c3c(c2[nH]c1=O)CN(CCc1ccccc1)CC3` returned a melting point of 290 to 295 °C.
In turn, `CC(C)c1c(S(=O)(=O)c2ccc(O)cc2)n(C)c2ccccc12` displayed a melting point of 188 °C.
The value for `CCOC(=O)c1ncoc1-c1ccc([N+](=O)[O-])cc1OC` was 106 to 107 °C.
As for `Nc1cccc(Oc2ncccc2C(=O)NCc2ccccc2Cl)c1`, the melting point is 101 to 103 °C.
As to `CCOCc1nc2cnc3cc(Br)ccc3c2n1CC1CCN(C(=O)OC(C)(C)C)CC1`, the melting point is 169 to 170 °C.
The value for `COc1ccc(C(=O)c2cccc([N+](=O)[O-])c2)cc1` was 88 to 89 °C.
As to `CN1CCN(c2ccc(N)c(C(=O)O)c2)CC1`, the melting point worked out at 212 °C.
Take `COc1ccc(-n2cc(-c3cccc(C(=O)O)n3)cn2)cc1`: the melting point is 122 to 123 °C.
The value for `CC(C)Oc1cccc(=O)n1O` was 119 to 120 °C; that for `CCCCCCC1C(=O)NC(C(=O)SCc2ccccc2)(C(O)C2C=CCCC2)C1(C)O` (stereo unspecified) was 138 °C; that for `COC(=O)[C@H]1Cc2cc(SC)ccc2C(=O)[C@H](C)S1` (relative stereo) was 105 to 106 °C.
The value for `COc1cc(OC)nc(Nc2ccc(C)cc2[N+](=O)[O-])n1` was 158 to 161 °C; that for `CC#CCOc1ccc(S(=O)(=O)C(CCCCCC#N)C(=O)OCC)cc1` (stereo unspecified) was 63 °C.
In turn, `CC(C)C1=C(C#N)C(c2cccc(C#N)c2Br)c2c[nH]nc2N1` (stereo unspecified) returned a melting point above 250 °C.
On to `CCOC(=O)c1ccc(OCCCN2C(=O)c3ccccc3C2=O)cc1`, for which the melting point lay in the range of 106 to 108 °C.
Turning to `CC1(C)OC(=O)C(C(=O)C2CC2)C(=O)O1`, the melting point lay in the range of 44 to 46 °C.
The value for `COc1ccc(Br)c(O)c1C(=O)O` was 143 to 144 °C; that for `COC(=O)C(C)Nc1nc(Cl)ccc1[N+](=O)[O-]` (stereo unspecified) was 113 to 114 °C; that for `CC(C)(C)c1ccc(Oc2cccc(C(=O)NCCN(O)C(N)=O)c2)cc1` was 100 to 102 °C.
In turn, `CCC(=O)c1ccc(OCCOC)cc1` came in with a melting point of 31 to 35 °C.
Compound `CNC(=O)C(Cc1ccc(OC)cc1)NC(=O)C(CC(C)C)C(S)CC(=O)NCC(N)=O` (stereo unspecified) gave a melting point of 247 to 252 °C.
On to `COc1ccc2c(c1)C(C#Cc1ccccc1)(C(F)(F)F)NC(=O)N2` (racemic), for which the melting point fell in the range of 206 to 208 °C.
On to `O=C(NCc1ccccc1)c1cc2c(=O)n(Cc3ccccc3)c(=O)[nH]c2s1`, for which the melting point was above 255 °C.
In the case of `O=C(O)Cc1c(-c2ccccc2)nn2cccnc12`, the melting point was in the range of 78 to 90 °C.
Consider `O=C(Nc1nccs1)c1cnc2c(C(F)(F)F)cccc2c1O`, for which the melting point stood at 325 °C.
The value for `Cc1c(-c2ccc(N)cc2)[nH]c2nccnc12` was 330 to 332 °C; that for `CNC(=O)N1CC(C)(C)N(C)C(C)(C)CC1=O` was 111 to 113 °C; that for `O=c1cc(N2CCSCC2)oc2c1ccc1ccccc12` was 171 to 173 °C.
`CCN(CC)c1ccnc2sc(C(N)=O)c(N)c12` displayed a melting point of 127 to 129 °C.
Turning to `ClC[Si](c1ccc(Cl)cc1)(c1ccc(Cl)cc1)c1ccc(Cl)cc1`, the melting point lay in the range of 89 to 93 °C.
On to `CCN1c2ncc(CO)cc2C(=O)N(C)c2ccc(Cl)nc21`, for which the melting point fell in the range of 166 to 168 °C.
`CN(C)c1ccc(C(NC(c2ccccc2)c2ccccc2)P(O)O)cc1` (stereo unspecified) registered a melting point of 205 °C.
For `N#Cc1cc(C(F)(F)F)ccc1Oc1cccc(C(=O)O)c1`, the melting point is 224 to 226 °C.
Compound `Clc1ccc(C(c2ccccc2)c2ccccc2)cn1` showed a melting point of 69.5 to 71 °C.
The value for `CC(=NNc1ccc(C2=NNC(=O)CC2)cc1)c1cccnc1` was 236 to 237 °C; that for `O=C(c1ccc([N+](=O)[O-])cc1)N1Cc2ccccc2Cc2cc(Cl)ccc21` was 198 to 201 °C; that for `Cn1ncc2c3[nH]n(-c4ccc(S(N)(=O)=O)cc4)c(=O)c3c(-c3cccc(C(F)(F)F)c3)nc21` was 272 to 274 °C.
For the compound `CCSc1nccnc1C(=O)CC`, the melting point is 45 to 48 °C.
Take `O=C(Nc1nc(-c2ccoc2)c(C(=O)C2CCOCC2)s1)c1ccnc(Cl)c1`: the melting point lay within 202 to 204 °C.
In the case of `O=C1NC(=O)C(c2ccc(OCCC(c3ccccc3)(c3ccccc3)c3ccccc3)cc2)S1` (stereo unspecified), the melting point was 85 to 87 °C.
`Cc1ncnn1-c1ccc(C#N)c(F)c1` showed a melting point of 89 to 90 °C.
The value for `Fc1cccc(COc2ccc(Nc3ncnc4cc(C#Cc5ccccn5)sc34)cc2Cl)c1` was 242 °C.
Take `COC(C#N)=CC1C(C(=O)O)C1(C)C` (stereo unspecified): the melting point was 110 °C.
For `O=C(Nc1ccc(N(Cc2ccccc2)C(=O)OCc2ccccc2)c(F)c1)OCc1ccccc1`, the melting point was 101 to 102 °C.
For `COCCOc1ccc(CCNC(=O)/C=C/c2cccs2)cc1S(N)(=O)=O`, the melting point came out at 140 °C.
Turning to `COc1ccc2c(c1)NC(=O)C(C(=O)N(C)C)C2` (stereo unspecified), the melting point was 209 to 210 °C.
In the case of `Nc1ccccc1OCCCCCN1CCC(OC(c2ccccc2)c2ccccc2)CC1`, the melting point lay within 80 to 81 °C.
On to `OCCOc1cnccc1CCCOc1cccnc1Oc1ccccc1`, for which the melting point was 129 to 132 °C.
Regarding `COc1cc([N+](=O)[O-])cc(OC(F)F)c1OC`, the melting point was 72 to 73 °C.
The value for `CCN1CCN(c2ccc(C(=O)NCCCCCCCCCCCCO)cn2)CC1` was 108 to 110 °C; that for `CCN(CC)CCNC(=O)c1cccc2c(=O)c3cccc(I)c3[nH]c12` was 148 to 150 °C.
The compound `CCCCCCCCCCCCOc1ccc(C(=O)Oc2ccc(C(=O)OC3CCC(CCC)(CCC)OC3=O)cc2)cc1` (stereo unspecified) registered a melting point of 91 °C.
As to `Cn1c(C(F)(F)F)cc(=O)n(-c2cc(OCCC3OCCCO3)c(Cl)cc2F)c1=O`, the melting point fell in the range of 128 to 130 °C.
In the case of `O=C(O)CC(CC(=O)O)c1ccc(O)cc1`, the melting point was 168 to 170 °C.
`CS(=O)(=O)c1ccc2c(c1)c1c(n2Cc2ccc(Cl)cc2)C(CC(=O)O)CCC1` (stereo unspecified) returned a melting point of 101 to 102 °C.
